Measured values as given in patent EP4702986A1, “POLYPEPTIDE AND USE THEREOF” (Biocells (Beijing) Biotech Co., Ltd., priority 2023, dated 2024).
Numbered stars: 1 amine (or outer) side, 2 acyl side, 3 side chain; on linkers, the order of the positions; unused ones are H or OH. Bridge positions count the residues as written; N and C are the ends. Side chains are listed from the residue outwards. Peptide text beside a SMILES is read from it. * marks the point of attachment. γGlu = O=C(O)[C@H](CCC(=O)[*:2])N[*:1]; Fumaroyl = O=C(O)/C=C/C(=O)*; Suc = O=C(CCC(=O)[*:2])[*:1]; Lauroyl = CCCCCCCCCCCC(=O)*; AEEA = NCCOCCOCC(=O)O

Tests used:
rat model of pMACO [1] = assay: Grip strength test in rat model of pMACO; assay type: in vivo, SD rats; settings: pMACO rats; 3 administrations (2, 4, 6 h after modeling); IRL1620 5µg/Kg, BX34 7µg/Kg, BX48 5µg/Kg
human ETA receptor = target: T1, human ETA receptor (Homo sapiens, UniProt P25101); assay: Selectivity of polypeptides on human ETA receptor (IP-One Gq kit, % of positive control ET1); assay type: cell-based; settings: read-out: hETAR agonist activity, percentage of activity relative to ET1
T1 construct: expressed in transfected cells; host or cells: 293T-17 cells, transient transfection
T1 sequence (P25101 21-427): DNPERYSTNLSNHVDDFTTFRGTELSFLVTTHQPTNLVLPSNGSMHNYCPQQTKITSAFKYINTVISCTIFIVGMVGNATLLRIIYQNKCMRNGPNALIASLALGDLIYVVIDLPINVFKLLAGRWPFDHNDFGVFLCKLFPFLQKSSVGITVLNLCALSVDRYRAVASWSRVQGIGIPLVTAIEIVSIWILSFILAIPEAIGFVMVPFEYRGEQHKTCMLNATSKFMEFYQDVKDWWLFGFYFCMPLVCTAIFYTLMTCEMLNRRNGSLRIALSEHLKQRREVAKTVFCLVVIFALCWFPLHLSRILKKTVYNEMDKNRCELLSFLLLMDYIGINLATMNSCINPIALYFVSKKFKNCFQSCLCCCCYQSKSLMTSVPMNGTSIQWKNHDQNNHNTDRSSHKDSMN
Method in brief: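 293T-17 cells transiently transfected with human ETA receptor (48 h), 30,000 cells/well exposed to polypeptides for 1 h at 37°C; IP1 accumulation by HTRF (665/620 nm ratio). Activity given as % of ET1 at the same concentration after PBS-control subtraction.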

rat model of pMACO [2] = assay: Rotarod test in rat model of pMACO; assay type: in vivo, SD rats; settings: IRL1620 5 µg/Kg, BX34 7 µg/Kg, BX48 5 µg/Kg, administered 3 times (2, 4, 6 hours after modeling), n=10
Excerpt: (§1) Male SD rats weighing 280-300 g were used and acclimated for at least 3 days. Focal cerebral ischemia was induced by middle cerebral artery occlusion with a suture method under isoflurane anesthesia. The animals were placed in a secure supine position, and a midline incision was made to expose the right common carotid artery, external carotid artery, and internal carotid artery. A 4.0 monofilament nylon suture was advanced from the external carotid artery toward the internal carotid artery lumen until resistance was felt ( ~ 20 mm), indicating middle cerebral artery occlusion. The nylon filament was allowed to stay in place to create a permanent model of focal cerebral ischemia. Successfully modeled rats were randomly assigned to four groups: a solvent (normal saline) group (n=10), a 7 µg/Kg BX-34 group (n=10), a 5 µg/Kg BX-48 group (n=10), and a 5 µg/Kg IRL1620 group (n=10). Each group was administered once at 2 hours, 4 hours, and 6 hours, respectively, after modeling, for a total of three administrations. Grip strength was measured before administration and at 24 hours and on D3 and D7 after administration. A rotarod test and a foot fault test were performed before administration and at 24 hours and day 7 after administration. During the rotarod test, time and distance were recorded, and ratios of the measurement at 24 hours and the measurement at D7 to the pretest measurement were used as analysis indicators. The specific method for the foot fault test was as follows. The rats were placed on an elevated grid floor (29×29 cm, grid opening: 3 cm^2) for 2 minutes, and the number of foot faults (when a forelimb fell through the grid) and the total steps were recorded. % Foot fault = (the number of forelimb faults/the total number of forelimb steps) × 100.

[3] = Determination of half-lives of polypeptides (plasma, LC-MS)
rat model of pMACO [4] = assay: Foot fault test in rat model of pMACO; assay type: in vivo, SD rats; settings: rat pMCAO; D7 after administration; comparison in words
rat model of pMACO [5] = assay: Foot fault test in rat model of pMACO; assay type: in vivo, SD rats
Excerpt: as §1

human ETB receptor = target: T2, human ETB receptor (Homo sapiens, UniProt P24530); assay: Determination of EC50 of polypeptides against human ETB receptor (IP-One Gq kit); assay type: cell-based; settings: 293T-17 cells transfected with PCDNA3.1-hETB; read-out: hETBR agonist activity EC50/nM
T2 construct: expressed in transfected cells; host or cells: 293T-17 cells, transient transfection
T2 sequence (P24530 27-442): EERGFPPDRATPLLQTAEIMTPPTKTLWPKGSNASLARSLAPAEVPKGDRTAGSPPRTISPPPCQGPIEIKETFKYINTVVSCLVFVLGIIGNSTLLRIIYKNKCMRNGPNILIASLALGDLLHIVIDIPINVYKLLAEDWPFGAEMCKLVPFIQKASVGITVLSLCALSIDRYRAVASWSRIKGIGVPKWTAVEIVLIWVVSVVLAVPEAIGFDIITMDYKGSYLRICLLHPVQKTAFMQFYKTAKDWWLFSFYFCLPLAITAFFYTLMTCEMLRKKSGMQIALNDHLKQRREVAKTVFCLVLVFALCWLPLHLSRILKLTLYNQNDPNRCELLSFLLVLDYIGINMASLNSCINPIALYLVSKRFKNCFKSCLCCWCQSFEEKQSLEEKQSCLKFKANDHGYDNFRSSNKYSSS
Experimental: 293T-17 cells were seeded at a density of 650,000 cells per well in a 6-well plate and cultured overnight in an incubator at 37°C and 5% CO2. Afterward, the cells were transfected with an expression vector, PCDNA3.1-hETB which contained a human ETB receptor gene, at a plasmid concentration of 2.5 µg per well. The cells were further cultured for 48 hours, and green fluorescence expression was observed under a fluorescence microscope. The cells were then digested with trypsin and counted. The activity of compounds on the human ETB receptor was determined with the IP-One Gq kit from Cisbio Bioassays. The cells were suspended in Stim Buffer provided in the kit and the cell suspension was added to a 96-well detection plate at 7 µL cell suspension (containing 30,000 cells) per well. The polypeptides to be tested (prepared according to the Preparation Example of the invention) were diluted in Stim B to obtain a gradient of 11 concentration points. For each concentration point, the polypeptides to be tested were dissolved in Stim B to be at a concentration of 2×, and added at 7 µL to the test cells, while 7 µL of PBS solution was added to the cells in the negative control wells. The plate was sealed and incubated at 37°C for 1 hour in a cell culture incubator. Detection wells, positive control wells containing human endothelin ET1 (ET1: […] (C1-C15,C3-C11)), and PBS control wells were each added with 3 µL of IP1 d2 working solution and 3 µL of IP1 Tb cryptotate Antibody working solution. The plate was then sealed and incubated in the dark at room temperature (25°C±5°C) for 1 hour. The plate seal was removed, and the […] at 665 nm and 620 nm was measured with an ID5 microplate reader. The ratio of the acceptor emission signal to the donor emission signal, i.e., (signal at 665 nm/signal at 620 nm)×10^4, was calculated for each well. With F representing the average value of values of signal at 665 nm/signal at 620 nm for the test samples at various concentrations, a scatterplot was plotted, where the abscissa represented the F value, and the ordinate represented the logarithmic value of the peptide concentration. A curve was fitted with an appropriate method to calculate EC50 values of the polypeptides against the human ETB receptor. Another method was provided for fitting a curve where activation rate of the test polypeptides at each concentration relative to the positive control sample human endothelin ET1 was calculated first with the method in Example 1, and a scatterplot was plotted, where the abscissa represented the activation rate, and the ordinate represented the logarithmic value of the polypeptide concentration. A curve was fitted with an appropriate method to calculate the EC50 values of the polypeptides against the human ETB receptor.

| Structure (SMILES) | Grip Strength Test 3D/pre (rat model of pMACO [1]) | Grip Strength Test 7D/pre (rat model of pMACO [1]) | Grip Strength Test 24h/pre (rat model of pMACO [1]) | activation at 10 µM (human ETA receptor; @10µM) [%] | activation at 100 µM (human ETA receptor; @100µM) [%] | Rotarod Test 7D/pretest (%) Distance, m (rat model of pMACO [2]; 7D relative to pretest) | Rotarod Test 7D/pretest (%) Time, s (rat model of pMACO [2]; 7D relative to pretest) | Rotarod Test 7D/pretest (%) Velocity (rat model of pMACO [2]; 7D relative to pretest) | Rotarod Test 24h/pretest (%) Distance, m (rat model of pMACO [2]; 24h relative to pretest) | Rotarod Test 24h/pretest (%) Time, s (rat model of pMACO [2]; 24h relative to pretest) | Rotarod Test 24h/pretest (%) Velocity (rat model of pMACO [2]; 24h relative to pretest) | half-life ([3]; C57 BL/6, mouse, plasma, iv) [min] | AUClast 0-30 min ([3]; C57 BL/6 mice, i.v., dosage per compound 0.48, 0.96 or 1 mpk) [ng·h/mL] | percentages of foot faults (rat model of pMACO [4]) | percentages of foot faults compared with the saline group and the IRL1620 group (rat model of pMACO [5]; pMACO rats, BX-34 7 µg/Kg, BX-48 5 µg/Kg, three administrations) | Foot fault Analysis Mean of 7D (rat model of pMACO [5]; percentage of foot faults at 7D, IRL1620 5 µg/Kg, BX34 7 µg/Kg, BX48 5 µg/Kg, administered 3 times (2, 4, 6 hours after modeling)) | Foot fault Analysis Mean of 24h (rat model of pMACO [5]; percentage of foot faults at 24h, IRL1620 5 µg/Kg, BX34 7 µg/Kg, BX48 5 µg/Kg, administered 3 times (2, 4, 6 hours after modeling)) | Foot fault Analysis Mean of Pretest (rat model of pMACO [5]; percentage of foot faults, pretest (baseline before administration), groups IRL1620 5 µg/Kg, BX34 7 µg/Kg, BX48 5 µg/Kg, 3 times) | EC50 (human ETB receptor) [nM] |
| --- | --- | --- | --- | --- | --- | --- | --- | --- | --- | --- | --- | --- | --- | --- | --- | --- | --- | --- | --- |
| CC[C@H](C)[C@H](NC(=O)[C@H](CC(=O)O)NC(=O)[C@H](CC(C)C)NC(=O)[C@H](Cc1c[nH]cn1)NC(=O)[C@H](C)NC(=O)[C@H](Cc1ccccc1)NC(=O)[C@H](Cc1ccc(O)cc1)NC(=O)[C@@H]1CCCCNC(=O)CC[C@H](NC(=O)[C@H](CC(=O)O)NC(=O)CCC(=O)O)C(=O)N[C@@H](CCC(=O)O)C(=O)N[C@@H](C)C(=O)N1)C(=O)N[C@H](C(=O)N[C@@H](Cc1c[nH]c2ccccc12)C(=O)O)[C@@H](C)CC [BX-48] (Suc-DEEAKYFAHLDIIW-OH; lactam 2-5) | 60% ±7% | 66% ±22% | 47% ±23% | 4.45 | 9.37 | 64.97%±19.43% | 81.64%±10.87% | 76.52%±13.55% | 16.15%±22.62% | 23.79%±27.04% | 47.16%±30.9A % | 3.9 | 757 | lower than that of the saline group and the IRL1620 group | lower | 2.24%±3.1% | 10.89%±10.53% | 1.11%±0.95% |  |
| CCCCCCCCCCCC(=O)N[C@@H](CCC(=O)NCCOCCOCC(=O)NCCCC[C@H](NC(=O)[C@H](Cc1c[nH]cn1)NC(=O)[C@H](C)NC(=O)[C@H](Cc1ccccc1)NC(=O)[C@H](Cc1ccc(O)cc1)NC(=O)[C@@H](NC(=O)[C@H](C)NC(=O)[C@H](CCC(=O)O)NC(=O)[C@H](CCC(=O)O)NC(=O)[C@H](CC(=O)O)NC(=O)/C=C/C(=O)O)C(C)C)C(=O)N[C@@H](CC(=O)O)C(=O)N[C@H](C(=O)N[C@H](C(=O)N[C@@H](Cc1c[nH]c2ccccc12)C(=O)O)[C@@H](C)CC)[C@@H](C)CC)C(=O)O [BX-225-Na] (Fumaroyl-DEEAVYFAHK([AEEA-γGlu-Lauroyl])DIIW-OH) |  |  |  |  |  |  |  |  |  |  |  |  |  |  |  |  |  |  | 134 |
| CC[C@H](C)[C@H](NC(=O)[C@H](CC(=O)O)NC(=O)[C@@H]1CCCCNC(=O)CC[C@H](NC(=O)[C@H](CCC(=O)O)NC(=O)[C@H](CCC(=O)O)NC(=O)[C@H](CC(=O)O)NC(=O)/C=C/C(=O)O)C(=O)N[C@@H](C(C)C)C(=O)N[C@@H](Cc2ccc(O)cc2)C(=O)N[C@@H](Cc2ccccc2)C(=O)N[C@@H](CCCCN)C(=O)N[C@@H](Cc2c[nH]cn2)C(=O)N1)C(=O)N[C@H](C(=O)N[C@@H](Cc1c[nH]c2ccccc12)C(=O)O)[C@@H](C)CC [QP-3] (Fumaroyl-DEEEVYFKHKDIIW-OH; lactam 4-10) |  |  |  |  |  |  |  |  |  |  |  |  |  |  |  |  |  |  | 3.85 |
